Among the test systems are PC-3 prostate; NCI-H226 lung; NCI/ADR-RES ovarian; HT29 colon; HS 578T breast; NCI-H23 lung; SF-295 CNS; CCRF-CEM leukemia; HCT-15 colon; MALME-3M melanoma.
Common to all, as to experiment: growth of human tumour cells (NCI), 48 h

Where “and” joins values, the source holds several entries; their conditions need not be identical. Equal entries are not always repeated.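 48-hour exposure; five concentrations; linearly interpolated endpoints. GI50 is the concentration that inhibits growth by half. TGI: concentration producing complete growth inhibition.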

Regarding `Cc1cc(S(N)(=O)=O)c(S/C(=N\NS(=O)(=O)c2ccccc2)c2ccc(Cl)cc2)cc1Cl`, the GI50 was 38.9 µM in the test on PC-3 prostate; above 100 µM in the test on NCI-H226 lung; above 100 µM with NCI/ADR-RES ovarian; above 100 µM in the test with HT29 colon; 39.8 µM in the test on HS 578T breast; 87.9 µM with NCI-H23 lung. In addition, the GI50 with SF-295 CNS is 22.5 µM; with CCRF-CEM leukemia, 99.7 µM; in the test on HCT-15 colon it was above 100 µM; in the test on MALME-3M melanoma, 65.4 µM. In addition, the TGI with PC-3 prostate, in the test on NCI-H226 lung, in the test on NCI/ADR-RES ovarian, in the test with HT29 colon, with HS 578T breast and with NCI-H23 lung was above 100 µM throughout. In addition, the TGI with SF-295 CNS, in the test with CCRF-CEM leukemia, in the test with HCT-15 colon and in the test on MALME-3M melanoma was above 100 µM in each case.
`CCOC(=O)c1c(NC(=O)c2ccc(Cl)cc2)sc2c(CN(C)C)c(O)ccc12`: the GI50 is 8.44 µM in the test on PC-3 prostate; 18.3 µM in the test on NCI-H226 lung; 8.57 µM with NCI/ADR-RES ovarian; 2.48 µM with HT29 colon; 4.06 µM in the test with HS 578T breast; 14.6 µM in the test with NCI-H23 lung. The GI50 was 3.79 µM with SF-295 CNS, 13.3 µM in the test with CCRF-CEM leukemia, 2.16 µM in the test with HCT-15 colon and 1.85 µM in the test with MALME-3M melanoma. The TGI is 37.3 µM with PC-3 prostate; above 100 µM in the test with NCI-H226 lung; 36.1 µM with NCI/ADR-RES ovarian; 7.13 µM in the test on HT29 colon; 26.5 µM in the test with HS 578T breast; 47.6 µM in the test with NCI-H23 lung. The TGI with SF-295 CNS is 16.4 µM; in the test on CCRF-CEM leukemia, above 100 µM; in the test on HCT-15 colon, 5.76 µM; in the test with MALME-3M melanoma it was 3.86 µM.
In the case of `COc1ccc(-c2cc(/C=C/C(=O)c3ccc(N)cc3)[nH]n2)cc1`, the GI50 was 2.42 µM in the test with PC-3 prostate; 2.05 µM with NCI-H226 lung; 2.86 µM in the test on NCI/ADR-RES ovarian; 2.75 µM in the test with HT29 colon; 4.04 µM in the test on HS 578T breast; 3.22 µM in the test on NCI-H23 lung. The GI50 in the test on SF-295 CNS was 3.09 µM; in the test on CCRF-CEM leukemia, 1.32 µM; with HCT-15 colon it was 1 µM; in the test on MALME-3M melanoma, 2.18 µM. Moreover, the TGI with PC-3 prostate is 10.1 µM; in the test with NCI-H226 lung, 5.57 µM; in the test on NCI/ADR-RES ovarian, 15.5 µM; in the test on HT29 colon, 8.11 µM; with HS 578T breast it was 24.4 µM; with NCI-H23 lung, 13.1 µM. For the same compound, the TGI with SF-295 CNS came out at 13.1 µM; with CCRF-CEM leukemia it was 4.91 µM; with HCT-15 colon, 3.62 µM; in the test with MALME-3M melanoma it was 6.22 µM.
Regarding `NCCCN=c1ccc2c3c1c(O)c1c(O)ccc(=O)c1c3[nH]n2CCNCCO`, the GI50 with PC-3 prostate was 5.08 µM; in the test with NCI-H226 lung, 1.05 µM; in the test on NCI/ADR-RES ovarian it was 20.1 µM; in the test with HT29 colon it was 3.08 µM; with HS 578T breast, 1.77 µM; in the test on NCI-H23 lung, 1.06 µM. For the same compound, the GI50 was 1.06 µM with SF-295 CNS; 0.583 µM and 0.478 µM with CCRF-CEM leukemia; 1.4 µM in the test with HCT-15 colon. Further, the TGI with PC-3 prostate was 15.6 µM and 68 µM; in the test on NCI-H226 lung it was 7.05 µM and 10.7 µM; in the test on NCI/ADR-RES ovarian, 25 µM and > 236 µM; with HT29 colon, 11.9 µM and 21.7 µM; in the test with HS 578T breast, 4.8 µM; in the test on NCI-H23 lung, 5.66 µM and 8.54 µM. The TGI with SF-295 CNS was 7.44 µM and 39.9 µM; in the test with CCRF-CEM leukemia, 8.77 µM and 28.3 µM; with HCT-15 colon it was 25 µM and 112 µM; in the test on MALME-3M melanoma, 6 µM.
For `NC(=O)/C(=C/n1cnc(-c2cc(C(F)(F)F)cc(C(F)(F)F)c2)n1)c1cncnc1`, the GI50 in the test with PC-3 prostate is 0.185 µM; with NCI-H226 lung, 0.286 µM; in the test with NCI/ADR-RES ovarian, 0.517 µM; with HT29 colon, 0.422 µM; with HS 578T breast it was 0.793 µM; in the test with NCI-H23 lung it was 0.307 µM. For the same compound, the GI50 with SF-295 CNS is 0.667 µM; in the test with CCRF-CEM leukemia it was 0.231 µM; in the test with HCT-15 colon it was 0.286 µM; in the test on MALME-3M melanoma, 0.256 µM. Further, the TGI in the test with PC-3 prostate stood at 14.8 µM; in the test with NCI-H226 lung, 7.73 µM; in the test with NCI/ADR-RES ovarian it was 23.9 µM; with HT29 colon it was 16.3 µM; in the test with HS 578T breast, 13.5 µM; in the test with NCI-H23 lung, 9.18 µM. Also, the TGI was found to be 17.1 µM in the test on SF-295 CNS, 14.4 µM in the test with CCRF-CEM leukemia, 6.93 µM with HCT-15 colon and 9.03 µM in the test on MALME-3M melanoma.
Take `N#[N+]c1ccc(Nc2ccccc2)cc1`: the GI50 with PC-3 prostate, in the test with NCI-H226 lung, with NCI/ADR-RES ovarian, in the test on HT29 colon, with HS 578T breast and in the test with NCI-H23 lung was above 50 µg/mL in each case. The GI50 with SF-295 CNS, in the test with CCRF-CEM leukemia, with HCT-15 colon and with MALME-3M melanoma was above 50 µg/mL each time. In addition, the TGI in the test with PC-3 prostate, in the test with NCI-H226 lung, with NCI/ADR-RES ovarian, with HT29 colon, in the test with HS 578T breast and in the test with NCI-H23 lung was above 50 µg/mL throughout. Further, the TGI with SF-295 CNS, in the test on CCRF-CEM leukemia, in the test on HCT-15 colon and with MALME-3M melanoma was above 50 µg/mL throughout.
With `O=c1cccc(Cl)[nH]1`, the TGI in the test on PC-3 prostate, with NCI-H226 lung, in the test with NCI/ADR-RES ovarian, with HT29 colon, in the test with HS 578T breast and with NCI-H23 lung was above 100 µM in each case. The TGI in the test with SF-295 CNS, in the test with CCRF-CEM leukemia, with HCT-15 colon and in the test with MALME-3M melanoma was above 100 µM in each case.
Turning to `CCCCCC[C@H]1C(=O)O[C@H](C)[C@H](NC(=O)c2cccc(NC=O)c2OC)C(=O)O[C@@H](C)[C@@H]1OC(=O)CCC` (tested in a mixture with another compound), the GI50 in the test on PC-3 prostate is 6.23 µM; with NCI-H226 lung, 14.7 µM; in the test on NCI/ADR-RES ovarian, 8.63 µM; in the test with HT29 colon, 5.98 µM; with HS 578T breast, 13.1 µM; in the test on NCI-H23 lung, 9.53 µM. The GI50 in the test on SF-295 CNS is 5.99 µM; in the test on CCRF-CEM leukemia, 3.81 µM; with HCT-15 colon, 11.1 µM; in the test with MALME-3M melanoma it was 15.3 µM. Further, the TGI in the test with PC-3 prostate was found to be 26.7 µM; with NCI-H226 lung, 39.4 µM; in the test on NCI/ADR-RES ovarian, 34.2 µM; with HT29 colon, 45.6 µM; in the test on HS 578T breast, 38.6 µM; with NCI-H23 lung, 49.2 µM. Moreover, the TGI with SF-295 CNS is 20.8 µM; with CCRF-CEM leukemia, 27.2 µM; in the test on HCT-15 colon it was 33.3 µM; with MALME-3M melanoma, 41.2 µM.
For the compound `C[C@@H]1CCc2ncc(F)cc2[C@H]2CCCN2c2ccn3ncc(c3n2)C(=O)N1`, the GI50 was above 100 µM in the test with PC-3 prostate; 28.3 µM in the test on NCI-H226 lung; above 100 µM in the test with NCI/ADR-RES ovarian; 68.3 µM in the test on HT29 colon; 24.5 µM in the test with HS 578T breast; above 100 µM in the test with NCI-H23 lung. The GI50 was 60.6 µM with SF-295 CNS, above 100 µM in the test with CCRF-CEM leukemia, 77.1 µM in the test on HCT-15 colon and above 100 µM with MALME-3M melanoma. Besides, the TGI in the test with PC-3 prostate, in the test with NCI-H226 lung, in the test with NCI/ADR-RES ovarian, in the test on HT29 colon, in the test with HS 578T breast and in the test with NCI-H23 lung was above 100 µM in each case. The TGI with SF-295 CNS, in the test with CCRF-CEM leukemia, in the test with HCT-15 colon and in the test on MALME-3M melanoma was above 100 µM in each case.
For `C[As](C)SC1OCC(O)C(O)C1O` (stereo not drawn), the GI50 with PC-3 prostate was 0.506 µM; with NCI-H226 lung, 0.68 µM; in the test on NCI/ADR-RES ovarian it was 0.138 µM; in the test with HT29 colon, 0.26 µM; in the test with HS 578T breast, 0.276 µM; with NCI-H23 lung, 0.281 µM. Also, the GI50 in the test with SF-295 CNS was 7.18 µM; in the test on CCRF-CEM leukemia it was 0.4 µM; in the test on HCT-15 colon it was 0.107 µM; with MALME-3M melanoma, 0.069 µM. The TGI was 5.73 µM in the test on PC-3 prostate; 2.19 µM in the test on NCI-H226 lung; 0.602 µM in the test on NCI/ADR-RES ovarian; above 100 µM in the test on HT29 colon; 0.718 µM in the test with HS 578T breast; 1.76 µM in the test with NCI-H23 lung. Besides, the TGI came to 6.42 µM in the test with CCRF-CEM leukemia, 0.611 µM in the test with HCT-15 colon and 0.366 µM in the test with MALME-3M melanoma.
